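How tested: cells in 96-well plates exposed to compound for 48 hours at five concentrations. GI50: concentration for 50% inhibition of growth. TGI: concentration producing complete growth inhibition.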
Assays:
Test in all cases: NCI tumour cell line growth inhibition, 48 h
SF-539 CNS = system: SF-539 CNS
HOP-92 NSCLC = system: HOP-92 NSCLC
PC-3 prostate = system: PC-3 prostate
M14 melanoma = system: M14 melanoma
NCI-H522 lung = system: NCI-H522 lung
MOLT-4 leukemia = system: MOLT-4 leukemia
OVCAR-3 ovarian = system: OVCAR-3 ovarian
HCC-2998 colon = system: HCC-2998 colon
A498 renal = system: A498 renal
UACC-62 melanoma = system: UACC-62 melanoma
MDA-MB-231 breast = system: MDA-MB-231 breast
OVCAR-8 ovarian = system: OVCAR-8 ovarian
HT29 colon = system: HT29 colon
SR leukemia = system: SR leukemia
SN12C renal = system: SN12C renal
SK-MEL-2 melanoma = system: SK-MEL-2 melanoma
EKVX NSCLC = system: EKVX NSCLC
COLO 205 colon = system: COLO 205 colon
786-0 renal = system: 786-0 renal
KM12 colon = system: KM12 colon
MCF7 breast = system: MCF7 breast
NCI-H226 lung = system: NCI-H226 lung
T-47D breast = system: T-47D breast
MALME-3M melanoma = system: MALME-3M melanoma
NCI-H23 lung = system: NCI-H23 lung
RXF 393 renal = system: RXF 393 renal
SK-MEL-28 melanoma = system: SK-MEL-28 melanoma
CCRF-CEM leukemia = system: CCRF-CEM leukemia
HL-60(TB) leukemia = system: HL-60(TB) leukemia
MDA-MB-435 = system: MDA-MB-435
SNB-75 CNS = system: SNB-75 CNS
SF-295 CNS = system: SF-295 CNS
HOP-62 NSCLC = system: HOP-62 NSCLC
U251 CNS = system: U251 CNS
HCT-15 colon = system: HCT-15 colon
SF-268 CNS = system: SF-268 CNS
NCI-H460 lung = system: NCI-H460 lung
LOX IMVI melanoma = system: LOX IMVI melanoma
IGROV1 ovarian = system: IGROV1 ovarian
CAKI-1 renal = system: CAKI-1 renal
TK-10 renal = system: TK-10 renal
OVCAR-4 ovarian = system: OVCAR-4 ovarian
K-562 leukemia = system: K-562 leukemia
ACHN renal = system: ACHN renal
UACC-257 melanoma = system: UACC-257 melanoma
SNB-19 CNS = system: SNB-19 CNS
MDA-MB-468 breast = system: MDA-MB-468 breast
DU-145 prostate = system: DU-145 prostate
RPMI-8226 leukemia = system: RPMI-8226 leukemia
SK-MEL-5 melanoma = system: SK-MEL-5 melanoma
HS 578T breast = system: HS 578T breast
OVCAR-5 ovarian = system: OVCAR-5 ovarian
SW-620 colon = system: SW-620 colon
SK-OV-3 ovarian = system: SK-OV-3 ovarian
BT-549 breast = system: BT-549 breast
A549 NSCLC = system: A549 NSCLC
NCI/ADR-RES ovarian = system: NCI/ADR-RES ovarian
HCT-116 colon = system: HCT-116 colon

## CN1C(=O)/C(=C/c2ccc3ncsc3c2)NC1=NC12CC3CC(CC(O)(C3)C1)C2
SF-539 CNS
  GI50: 1.29 µM
  TGI: 5.82 µM
HOP-92 NSCLC
  GI50: 5.31 µM
  TGI: 56.9 µM
PC-3 prostate
  GI50: 3.73 µM
  TGI: > 100 µM
M14 melanoma
  GI50: 4.28 µM
  TGI: 34.4 µM
NCI-H522 lung
  GI50: 0.768 µM
  TGI: 4.49 µM
MOLT-4 leukemia
  GI50: 2.22 µM
  TGI: 22.3 µM
OVCAR-3 ovarian
  GI50: 1.4 µM
  TGI: 6.18 µM
HCC-2998 colon
  GI50: 7.66 µM
  TGI: > 100 µM
A498 renal
  GI50: 1.6 µM
  TGI: 6.68 µM
UACC-62 melanoma
  GI50: 2.22 µM
  TGI: 9.09 µM
MDA-MB-231 breast
  GI50: 4.26 µM
  TGI: 85.4 µM
OVCAR-8 ovarian
  GI50: 3.01 µM
  TGI: > 100 µM
HT29 colon
  GI50: 3.85 µM
  TGI: 17.8 µM
SR leukemia
  GI50: 0.534 µM
  TGI: 5.37 µM
SN12C renal
  GI50: 2.07 µM
  TGI: 49.6 µM
SK-MEL-2 melanoma
  GI50: 1.98 µM
  TGI: 9.48 µM
EKVX NSCLC
  GI50: 4.25 µM
  TGI: > 100 µM
COLO 205 colon
  GI50: 3.18 µM
  TGI: 30.5 µM
786-0 renal
  GI50: 4.02 µM
  TGI: > 100 µM
KM12 colon
  GI50: 2.81 µM
  TGI: > 100 µM
MCF7 breast
  GI50: 2.98 µM
  TGI: > 100 µM
NCI-H226 lung
  GI50: 2.7 µM
  TGI: > 100 µM
T-47D breast
  GI50: 3.32 µM
  TGI: > 100 µM
MALME-3M melanoma
  GI50: 2.98 µM
  TGI: 8.25 µM
NCI-H23 lung
  GI50: 2.48 µM
  TGI: 13.9 µM
RXF 393 renal
  GI50: 1.85 µM
  TGI: 12.2 µM
SK-MEL-28 melanoma
  GI50: 2.57 µM
  TGI: 8.69 µM
CCRF-CEM leukemia
  GI50: 1.92 µM
  TGI: 8.18 µM
HL-60(TB) leukemia
  GI50: 3.2 µM
  TGI: 8.15 µM
MDA-MB-435
  GI50: 3.69 µM
  TGI: 20 µM
SNB-75 CNS
  GI50: 1.02 µM
  TGI: 7.89 µM
SF-295 CNS
  GI50: 5.28 µM
  TGI: > 100 µM
HOP-62 NSCLC
  GI50: 4.13 µM
  TGI: > 100 µM
U251 CNS
  GI50: 3.14 µM
  TGI: > 100 µM
HCT-15 colon
  GI50: 2.13 µM
  TGI: > 100 µM
SF-268 CNS
  GI50: 4.47 µM
  TGI: 34.5 µM
NCI-H460 lung
  GI50: 2.22 µM
  TGI: > 100 µM
LOX IMVI melanoma
  GI50: 2.52 µM
  TGI: > 100 µM
IGROV1 ovarian
  GI50: 2.82 µM
  TGI: > 100 µM
CAKI-1 renal
  GI50: 1.64 µM
  TGI: > 100 µM
TK-10 renal
  GI50: 4.44 µM
  TGI: > 100 µM
OVCAR-4 ovarian
  GI50: 9.29 µM
  TGI: > 100 µM
K-562 leukemia
  GI50: 1.7 µM
  TGI: > 100 µM
ACHN renal
  GI50: 0.892 µM
  TGI: > 100 µM
UACC-257 melanoma
  GI50: 3.59 µM
  TGI: 12.5 µM
SNB-19 CNS
  GI50: 3.47 µM
  TGI: > 100 µM
MDA-MB-468 breast
  GI50: 1.48 µM
  TGI: 15.9 µM
DU-145 prostate
  GI50: 2.97 µM
  TGI: > 100 µM
RPMI-8226 leukemia
  GI50: 1.98 µM
  TGI: 6.83 µM
SK-MEL-5 melanoma
  GI50: 2.02 µM
  TGI: 5.07 µM
HS 578T breast
  GI50: 2.16 µM
  TGI: 8.97 µM
OVCAR-5 ovarian
  GI50: 5.12 µM
  TGI: > 100 µM
SW-620 colon
  GI50: 2.74 µM
  TGI: 17.3 µM
SK-OV-3 ovarian
  GI50: 2.21 µM
  TGI: > 100 µM
BT-549 breast
  GI50: 1.17 µM
  TGI: 10.3 µM
A549 NSCLC
  GI50: 1.98 µM
  TGI: > 100 µM

## Cc1ccc(Cl)cc1NC(=O)Nc1nc2ccc([N+](=O)[O-])cc2s1
NCI/ADR-RES ovarian
  GI50: 2.54 µM
  TGI: 9.04 µM
SF-539 CNS
  GI50: 2.6 µM
  TGI: 6.9 µM
HOP-92 NSCLC
  GI50: 2.29 µM
  TGI: 6.42 µM
PC-3 prostate
  GI50: 2.97 µM
  TGI: 11.3 µM
M14 melanoma
  GI50: 2.87 µM
  TGI: 10.8 µM
NCI-H522 lung
  GI50: 2.08 µM
  TGI: 7.17 µM
MOLT-4 leukemia
  GI50: 2.3 µM
  TGI: 6.76 µM
OVCAR-3 ovarian
  GI50: 3.25 µM
  TGI: 11.6 µM
HCC-2998 colon
  GI50: 3.43 µM
  TGI: 10.9 µM
A498 renal
  GI50: 2.38 µM
  TGI: 6.29 µM
UACC-62 melanoma
  GI50: 2.86 µM
  TGI: 11.5 µM
OVCAR-8 ovarian
  GI50: 3.07 µM
  TGI: 11.7 µM
HT29 colon
  GI50: 3.28 µM
  TGI: 10.5 µM
SR leukemia
  GI50: 2.05 µM
  TGI: 5.63 µM
SN12C renal
  GI50: 2.86 µM
  TGI: 9.7 µM
EKVX NSCLC
  GI50: 2.79 µM
  TGI: 10.1 µM
COLO 205 colon
  GI50: 1.85 µM
  TGI: 3.58 µM
HCT-116 colon
  GI50: 2.81 µM
  TGI: 11 µM
786-0 renal
  GI50: 2.73 µM
  TGI: 10 µM
KM12 colon
  GI50: 3.1 µM
  TGI: 10.3 µM
MCF7 breast
  GI50: 2.71 µM
  TGI: 8.92 µM
NCI-H226 lung
  GI50: 3.34 µM
  TGI: 12 µM
T-47D breast
  GI50: 2.31 µM
  TGI: 7.87 µM
MALME-3M melanoma
  GI50: 2.17 µM
  TGI: 6.39 µM
NCI-H23 lung
  GI50: 2.27 µM
  TGI: 6.58 µM
RXF 393 renal
  GI50: 2.54 µM
  TGI: 9.73 µM
SK-MEL-28 melanoma
  GI50: 3.42 µM
  TGI: 12.3 µM
CCRF-CEM leukemia
  GI50: 3.02 µM
  TGI: 12.5 µM
HL-60(TB) leukemia
  GI50: 1.88 µM
  TGI: 4.7 µM
MDA-MB-435
  GI50: 3.33 µM
  TGI: 12.2 µM
SF-295 CNS
  GI50: 2.24 µM
  TGI: 6.59 µM
HOP-62 NSCLC
  GI50: 3.47 µM
  TGI: 11.2 µM
U251 CNS
  GI50: 3.06 µM
  TGI: 10.7 µM
HCT-15 colon
  GI50: 2.93 µM
  TGI: 11.3 µM
SF-268 CNS
  GI50: 3.48 µM
  TGI: 13.8 µM
NCI-H460 lung
  GI50: 2.69 µM
  TGI: 10.2 µM
LOX IMVI melanoma
  GI50: 3.28 µM
  TGI: 12.1 µM
IGROV1 ovarian
  GI50: 3.92 µM
  TGI: 14.3 µM
CAKI-1 renal
  GI50: 3.18 µM
  TGI: 11.7 µM
TK-10 renal
  GI50: 3.49 µM
  TGI: 13 µM
OVCAR-4 ovarian
  GI50: 3.36 µM
  TGI: 14.2 µM
K-562 leukemia
  GI50: 2.5 µM
  TGI: 10.2 µM
ACHN renal
  GI50: 3.09 µM
  TGI: 10.6 µM
UACC-257 melanoma
  GI50: 2.21 µM
  TGI: 6.63 µM
SNB-19 CNS
  GI50: 3.43 µM
  TGI: 12.7 µM
MDA-MB-468 breast
  GI50: 2.24 µM
  TGI: 6.6 µM
DU-145 prostate
  GI50: 3.68 µM
  TGI: 14.1 µM
RPMI-8226 leukemia
  GI50: 1.85 µM
  TGI: 5.58 µM
SK-MEL-5 melanoma
  GI50: 1.84 µM
  TGI: 3.6 µM
HS 578T breast
  GI50: 2.75 µM
  TGI: 9.4 µM
OVCAR-5 ovarian
  GI50: 3.33 µM
  TGI: 11.9 µM
SW-620 colon
  GI50: 3.06 µM
  TGI: 12.4 µM
SK-OV-3 ovarian
  GI50: 2.19 µM
  TGI: 6.52 µM
BT-549 breast
  GI50: 2.35 µM
  TGI: 7.92 µM
A549 NSCLC
  GI50: 2.94 µM
  TGI: 10.1 µM
